Test results reported in US4673684A, “Amide derivatives and 5-lipoxygenase inhibitors containing the same as an active ingredient” (Terumo Corporation, priority 1984, dated 1987).

What follows are molecules tested against T1, 5-lipoxygenase (Mus musculus, UniProt P48999) (assay: 5-Lipoxygenase-inhibiting Activity (decrease in 5-HETE and LTB4 formed from radiolabelled arachidonic acid, enzyme solution from mouse mastcytoma cells P-815)). Details: 5-HETE and LTB4 formation; mouse mastcytoma P-815 enzyme solution; 37° C., 5 min; pH 7.4; with indomethacin; read-out: 50% Inhibitory concentration IC50.
T1 construct: The supernatant is used as a 5-lipogenase enzyme solution; endogenous in cells
T1 sequence (P48999 1-674): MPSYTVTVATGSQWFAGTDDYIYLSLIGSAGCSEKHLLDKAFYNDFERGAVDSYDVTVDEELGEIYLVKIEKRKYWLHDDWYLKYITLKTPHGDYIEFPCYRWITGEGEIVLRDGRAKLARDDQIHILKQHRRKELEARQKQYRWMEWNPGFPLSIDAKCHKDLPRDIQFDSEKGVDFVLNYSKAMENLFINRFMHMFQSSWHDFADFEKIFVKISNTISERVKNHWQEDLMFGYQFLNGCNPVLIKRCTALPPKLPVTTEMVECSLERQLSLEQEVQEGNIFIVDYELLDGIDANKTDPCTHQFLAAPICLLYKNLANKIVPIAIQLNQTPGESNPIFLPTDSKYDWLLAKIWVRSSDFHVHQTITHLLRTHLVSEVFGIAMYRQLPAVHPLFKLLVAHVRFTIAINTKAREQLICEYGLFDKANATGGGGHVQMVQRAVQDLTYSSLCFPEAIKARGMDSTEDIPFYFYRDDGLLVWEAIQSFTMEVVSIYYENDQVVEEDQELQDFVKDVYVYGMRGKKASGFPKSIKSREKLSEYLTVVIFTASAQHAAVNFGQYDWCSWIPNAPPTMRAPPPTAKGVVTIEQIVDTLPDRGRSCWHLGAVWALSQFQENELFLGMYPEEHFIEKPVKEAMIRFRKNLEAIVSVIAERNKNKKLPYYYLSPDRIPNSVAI
Type: biochemical
Summary of the method: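 Enzyme is sonicated 10,000 rpm supernatant of P-815 mouse mastocytoma cells, reacted 5 min at 37 °C with radiolabelled arachidonic acid, indomethacin and CaCl2 in pH 7.4 phosphate buffer. 5-HETE and LTB4 separated by TLC and counted by scintillation; IC50 or IC30 is concentration reducing product to 50% or 30% of control.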

Question: `COc1cc(/C=C/C(=O)NCCCCN2CCC(OC(c3ccccc3)c3ccccc3)CC2)ccc1O` [Example 124, 1-[4-[3-(3-methoxy-4-hydroxyphenyl)-2-propenoyl]aminobutyl]-4-benzhydroxypiperidine] was tested. Which IC50 did it give?
Answer: The IC50 was 200 nM.

Question: For `COc1cc(/C=C/C(=O)N2CCN(CCCCn3cnc4c3c(=O)n(C)c(=O)n4C)CC2)cc(OC)c1O` [Example 125, 7-[4-[4-{3-(3,5-dimethoxy-4-hydroxyphenyl)-2-propenoyl}piperazi-1-nyl]butyl]theophylline], which IC50 is on record?
Answer: Its IC50 is 7000 nM.

Question: How did the IC50 turn out when `COc1cc(/C=C/C(=O)NCCCN2CCC(OC(c3ccccc3)c3ccccc3)CC2)cc(OC)c1O` [Example 126, 1-[3-{3-(3,5-dimethoxy-4-hydroxyphenyl)-2-propenoyl}aminopropyl]-4-benzhydroxypiperidine] was run?
Answer: The IC50 was 10 nM.

Question: Which IC50 does the source give for `COc1cc(/C=C/C(=O)N2CCN(CCCn3cnc4c3c(=O)n(C)c(=O)n4C)CC2)cc(OC)c1OC` [Example 127, 7-[3-[4-[3-(3,4,5-trimethoxyphenyl)-2-propenoyl]piperazi-1-nyl]-1-propyl]theopylline] here?
Answer: The IC50 was 30000 nM.

Question: How did the IC50 turn out when `Cn1c(=O)c2c(ncn2CCCN2CCN(C(=O)/C=C/C=C/c3ccc(O)c(O)c3)CC2)n(C)c1=O` [Example 128, 7-[3-[4-[5-(-dihydroxyphenyl)-2,4-pentadienoyl]piperazi-1-nyl]-1-propyl]theophylline] was run?
Answer: Its IC50 is 1000 nM.

Question: For `O=C(/C=C/C=C/c1ccc(O)c(O)c1)NCCCCN1CCC(OC(c2ccccc2)c2ccccc2)CC1` [Example 129, 1-[4-[5-(3,4-dihydroxyphenyl)-2,4-pentadienoyl]aminobutyl]-4-benzhydroxypiperidine], which IC50 is on record?
Answer: The IC50 was 20 nM.

Question: `COc1cc(/C=C/C=C/C(=O)N2CCN(CCCCn3cnc4c3c(=O)n(C)c(=O)n4C)CC2)ccc1O` [Example 130] was tested. Which IC50 did it give?
Answer: Its IC50 is 1000 nM.

Question: Which IC50 does the source give for `COc1cc(/C=C/C=C/C(=O)NCCCN2CCC(OC(c3ccccc3)c3ccccc3)CC2)ccc1O` [Example 131] here?
Answer: Its IC50 is 7 nM.

Question: For `COc1cc(/C=C/C=C/C(=O)N2CCN(CCCCn3cnc4c3c(=O)n(C)c(=O)n4C)CC2)cc(OC)c1O` [Example 132], which IC50 is on record?
Answer: The IC50 was 1000 nM.

Question: Which IC50 does the source give for `COc1cc(/C=C/C=C/C(=O)NCCCCN2CCC(OC(c3ccccc3)c3ccccc3)CC2)cc(OC)c1O` [Example 133, 1-[4-[5-(3,5-dimethoxy-4-hydroxyphenol)-2,4-pentadienoyl]aminobutyl]-4-benzydroxypiperidine] here?
Answer: The IC50 was 20 nM.

Question: Which IC50 does the source give for `COc1cc(/C=C/C=C/C(=O)N2CCN(CCCn3cnc4c3c(=O)n(C)c(=O)n4C)CC2)cc(OC)c1OC` [Example 134, 7-[3-[4-[5-(3,4,5-trimethoxyphenyl)-2,4-pentadienoyl]piperazi-1-nyl]-1-propyl]theophylline] here?
Answer: The IC50 was 20000 nM.
